Data set [1] concerns the target Transient receptor potential cation channel subfamily V member 4 (Homo sapiens, UniProt Q9HBA0). Description: Antagonist activity at human TRPV4 receptor expressed in HEK293 cells assessed as inhibition of EC80 of 4alpha-PDD-stimulated calcium flux after 10 mins. The class given is cell-based.
The target of data set [2] is Transient receptor potential cation channel subfamily V member 4 (Rattus norvegicus, UniProt Q9ERZ8). Description: Antagonist activity at rat TRPV4 receptor expressed in HEK293 cells assessed as inhibition of EC80 of 4alpha-PDD-stimulated calcium flux after 10 mins. The class given is cell-based. (A change in cytosolic calcium serves as a functional read-out for many receptors and channels.)

The nature of data set [3]: Clearance in Wistar rat at 1.05 mg/kg, iv. In kind it is ADME, organism-based. Particulars: in vivo.
A short description of data set [4]: AUC (infinity) in Wistar rat at 1.05 mg/kg, iv. In kind it is ADME, organism-based. More on the design: dose 1.05 mg/kg, route intravenous, time infinity. Particulars: in vivo.
Data set [5] in a line: Volume of distribution at steady state in Wistar rat at 1.05 mg/kg, iv. In kind it is ADME, organism-based. The note with it: in vivo, read-out: Vdss.
The nature of data set [6]: Half life in Wistar rat at 1.05 mg/kg, iv. The class given is ADME, organism-based. The note with it: in vivo.
The nature of data set [7]: Cmax in Wistar rat at 1.80 mg/kg, po. The note with it: in vivo, 1.8 mg/kg. Also noted: dose 1.8 mg/kg, route oral. The class given is ADME, organism-based.
The nature of data set [8]: AUC (infinity) in Wistar rat at 1.80 mg/kg, po. In kind it is ADME, organism-based. Also noted: dose 1.8 mg/kg, time infinity, route oral. The note with it: in vivo, 1.8 mg/kg.
Data set [9] in a line: Oral bioavailability in Wistar rat at 1.80 mg/kg. The class given is ADME, organism-based. The note with it: in vivo, 1.8 mg/kg.
Data set [10] in a line: Solubility of the compound at pH 7.4. The class given is physicochemical. The note with it: buffer.
A short description of data set [11]: Plasma protein binding in rat. In kind it is ADME, cell-free. The note with it: read-out: PPB (converted).
Data set [12] can be described thus: Plasma protein binding in human. In kind it is ADME, cell-free. Particulars: read-out: PPB (converted).

pIC50: −log10 of the molar value. In brackets after ≈: the same amount, converted by molar mass. Bounds are passed on as bounds.

Sequence of Transient receptor potential cation channel subfamily V member 4 (Homo sapiens, UniProt Q9HBA0) (Q9HBA0 whole entry): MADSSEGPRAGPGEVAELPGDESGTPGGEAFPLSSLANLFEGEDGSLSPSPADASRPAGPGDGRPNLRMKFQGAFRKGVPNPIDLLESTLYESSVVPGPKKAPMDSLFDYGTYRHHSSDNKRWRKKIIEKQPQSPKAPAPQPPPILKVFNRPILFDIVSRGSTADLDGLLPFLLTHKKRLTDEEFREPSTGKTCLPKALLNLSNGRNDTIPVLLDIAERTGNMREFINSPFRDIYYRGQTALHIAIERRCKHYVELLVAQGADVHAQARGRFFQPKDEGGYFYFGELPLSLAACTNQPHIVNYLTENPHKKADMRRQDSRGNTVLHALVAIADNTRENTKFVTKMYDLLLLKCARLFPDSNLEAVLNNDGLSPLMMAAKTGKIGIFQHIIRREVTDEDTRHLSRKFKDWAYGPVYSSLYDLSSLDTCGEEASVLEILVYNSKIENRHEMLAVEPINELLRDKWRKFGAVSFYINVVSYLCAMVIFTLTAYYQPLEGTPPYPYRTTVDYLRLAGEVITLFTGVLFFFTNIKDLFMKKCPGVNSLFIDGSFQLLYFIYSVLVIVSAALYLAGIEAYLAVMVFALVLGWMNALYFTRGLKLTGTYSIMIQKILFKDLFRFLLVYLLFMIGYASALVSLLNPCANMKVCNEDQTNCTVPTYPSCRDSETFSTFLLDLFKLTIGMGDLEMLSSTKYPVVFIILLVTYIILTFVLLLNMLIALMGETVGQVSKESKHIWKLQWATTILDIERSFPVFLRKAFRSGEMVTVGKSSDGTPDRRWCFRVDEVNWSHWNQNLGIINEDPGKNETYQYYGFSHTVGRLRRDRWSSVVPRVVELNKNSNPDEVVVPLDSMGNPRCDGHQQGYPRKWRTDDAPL
Sequence of Transient receptor potential cation channel subfamily V member 4 (Rattus norvegicus, UniProt Q9ERZ8) (Q9ERZ8 whole entry): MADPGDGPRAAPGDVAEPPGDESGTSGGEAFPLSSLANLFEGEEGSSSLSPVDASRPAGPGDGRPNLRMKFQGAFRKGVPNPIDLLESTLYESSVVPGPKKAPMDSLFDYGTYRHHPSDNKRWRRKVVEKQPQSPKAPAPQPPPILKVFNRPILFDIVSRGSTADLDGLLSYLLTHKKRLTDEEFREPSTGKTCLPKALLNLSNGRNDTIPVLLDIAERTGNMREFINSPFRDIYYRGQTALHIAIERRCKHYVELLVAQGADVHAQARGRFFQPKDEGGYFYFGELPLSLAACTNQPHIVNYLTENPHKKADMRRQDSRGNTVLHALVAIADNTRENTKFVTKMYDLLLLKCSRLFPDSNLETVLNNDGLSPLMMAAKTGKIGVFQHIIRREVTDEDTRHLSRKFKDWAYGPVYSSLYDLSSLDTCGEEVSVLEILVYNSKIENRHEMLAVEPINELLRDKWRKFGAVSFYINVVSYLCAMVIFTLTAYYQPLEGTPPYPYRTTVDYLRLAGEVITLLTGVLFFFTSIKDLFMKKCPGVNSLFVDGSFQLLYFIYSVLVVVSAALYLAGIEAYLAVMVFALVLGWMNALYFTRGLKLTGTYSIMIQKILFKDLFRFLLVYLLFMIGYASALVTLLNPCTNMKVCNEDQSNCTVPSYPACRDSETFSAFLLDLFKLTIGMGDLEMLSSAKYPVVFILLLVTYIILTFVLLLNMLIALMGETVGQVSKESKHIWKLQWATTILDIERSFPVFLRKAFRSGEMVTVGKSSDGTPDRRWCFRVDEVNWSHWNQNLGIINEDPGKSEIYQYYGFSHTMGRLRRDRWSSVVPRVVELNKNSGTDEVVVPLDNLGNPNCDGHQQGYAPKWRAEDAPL

The term pIC50 denotes the IC50 on a negative log10 scale, so that one unit is a factor of ten. Consider `CC(C)N1CCCN(S(=O)(=O)c2ccc(NC(=O)c3ccc(C(F)(F)F)cc3)cc2)CC1`, for which the pIC50 in [1] was 5.88.

For the compound `CC(C)N1CCN(S(=O)(=O)c2ccc(NC(=O)c3ccc(C(F)(F)F)cc3C(F)(F)F)cc2)CC1`, the results for the pIC50 in data set [1] and in [2] were 6.27 and 6.31, respectively.

`CC(C)N1CCN(C(=O)c2ccc(NC(=O)c3ccc(C(F)(F)F)cc3)cc2)CC1`: the pIC50 in data set [1] and in [2] was less than 5.00 each time.

Take `CC(C)N1CCN(S(=O)(=O)c2ccc(NC(=O)c3ccc(C(F)(F)F)cc3F)cc2)CC1`: the pIC50 in [1] is 6.42; in data set [2], 6.43.

Consider `CN(C)C1CCN(S(=O)(=O)c2ccc(NC(=O)c3ccc(C(F)(F)F)cc3)cc2)CC1`, for which the pIC50 in data set [1] is 5.68.

Consider `CC(C)N1CCN(S(=O)(=O)c2ccc(NC(=O)c3ccc(-c4ncccc4Cl)cc3)cc2)CC1`, for which the pIC50 is 6.03 in data set [1] and 5.41 in data set [2].

Consider `CCN(C)C1CCN(S(=O)(=O)c2ccc(NC(=O)c3ccc(C(F)(F)F)cc3)cc2)CC1`, for which the pIC50 in data set [1] was 5.89.

As for `O=C(Nc1ccc(S(=O)(=O)N2CCN(C3CCCC3)CC2)cc1)c1ccc(C(F)(F)F)cc1`, the pIC50 in data set [1] was 6.10.

With `CC(C)N1CCN(S(=O)(=O)c2ccc(NC(=O)c3ccc(C(C)(C)C)cc3)cc2)CC1`, the values for the pIC50 in data set [1] and in [2] were 6.41 and 5.98, respectively.

Turning to `CC(C)N1CCN(S(=O)(=O)c2ccc(NC(=O)c3cccc(C(F)(F)F)c3)cc2)CC1`, the values for the pIC50 in data set [1] and in data set [2] were 5.66 and 5.71, respectively.

For the compound `CC(C)N1CCN(S(=O)(=O)c2ccc(NC(=O)c3ccccc3)cc2)CC1`, the pIC50 in [1] is 5.07; in data set [2] it was 5.37.

Turning to `CC(C)N1CCN(S(=O)(=O)c2ccc(NS(=O)(=O)c3ccc(C(F)(F)F)cc3)cc2)CC1`, the pIC50 in [1] and in [2] was less than 5.00 in each case.

For `CCN(CC)C1CCN(S(=O)(=O)c2ccc(NC(=O)c3ccc(C(F)(F)F)cc3)cc2)CC1`, the pIC50 in [1] was 6.04.

Turning to `CC(C)N1CCN(S(=O)(=O)c2ccc(NC(=O)c3ccc(C(F)(F)F)cc3)cc2)CC1`, the pIC50 was 6.15 in [1] and 6.03 in data set [2].

Consider `CC(C)N1CCN(S(=O)(=O)c2ccc(NC(=O)c3ccc(-c4ccccn4)cc3)cc2)CC1`, for which the pIC50 in data set [1] was 5.31; in data set [2], 5.19.

Turning to `CN(C)S(=O)(=O)c1ccc(NC(=O)c2ccc(C(F)(F)F)cc2)cc1`, the figures for the pIC50 in [1] and in [2] were 5.37 and 5.24, respectively.

What is called clearance is a measure of how efficiently the substance is removed, as volume per time. Lower therefore signals a low capacity for elimination. Usually AUC(0-inf) stands for total exposure, with the tail of the curve extrapolated. Read a low AUC(0-inf) as low exposure. The half-life is the time in which the quantity being followed falls by half. A lower half-life goes with rapid decline. The term Cmax denotes the peak of the concentration-time curve. What is called bioavailability is dose-corrected exposure relative to a reference, in per cent. By solubility is commonly meant how much of the substance goes into solution per volume. As for `CC(C)N1CCN(S(=O)(=O)c2ccc(NC(=O)c3ccc(S(F)(F)(F)(F)F)cc3)cc2)CC1`, the pIC50 in [1] is 6.59; in [2], 6.41. This compound had a clearance in [3] of 22.5 mL/min/kg. In addition, the values for the AUC(0-inf) in data set [4] and in data set [8] were 779 ng·h/mL and 303 ng·h/mL, respectively. Moreover, in data set [5], the Vd is 2.01 L/kg. The half-life in data set [6] was 61.8 min. The compound also registered a Cmax in data set [7] of 143 ng/mL. In data set [9], this compound yielded a bioavailability of 22.7%. In data set [10], this compound returned a solubility of 0.15 µM (≈ 0.077 µg/mL). In addition, the fraction unbound in data set [11] is 0.0009; in data set [12], 0.0008.

`CC(C)N1CCN(S(=O)(=O)c2ccc(NC(=O)c3ccc(C(F)(F)F)cc3N)cc2)CC1`: the pIC50 is 6.03 in data set [1] and 5.53 in data set [2].

For the origin of these results see ChEMBL document CHEMBL3612012, “Identification of orally-bioavailable antagonists of the TRPV4 ion-channel” (Bioorg Med Chem Lett, 2015).
